Read-outs that look alike come from different tables or passages of the source.
How the values were obtained:
[1] = tested on: STHdh 111/111 striatal cells; assay: Cell viability (CellTiter Glo) of heat shocked STHdh 111/111 striatal cells; type: cell-based, mouse; conditions: STHdh 111/111, 10 µM, 48 hours treatment; for viability at 10 µM: Mus musculus, read-out: Cell Viability striatal cells 3h heat shocked
Experimental: Cell culture - ST HDH Q111/111 (CH00095, Coriell Institute) striatal derived cell line were grown at 33° C. in DMEM (Sigma-Aldrich), supplemented with 10% fetal bovine serum (FBS), 1% Penicillin-Streptomycin (ThermoFisher Scientific), and 0.4 mg/ml G418 (Geneticin; Invitrogen). ST HDH Q111/111 are mouse striatal cells with polyQ length of 1111.
Pre-Treatment of striatal cell line - First the medium was removed and new DMEM (DMEM, high glucose, HEPES, no phenol red) medium, supplemented with 10% fetal bovine serum (FBS), 1% Penicillin-Streptomycin, containing 10 µM compound was added. The cells were incubated at 33° C. for 24 hours.
Heat shock - Cells were heat shocked for 3 hours at 41° C.
Treatment - Medium was removed and new DMEM (DMEM, high glucose, HEPES, no phenol red) medium, supplemented with 1% fetal bovine serum (FBS), 1% Penicillin-Streptomycin, containing 10 µM compound was added. The cells were incubated at 33° C. for 48 hours.
Cell Viability - Cell viability was measured according to manufacturer recommendations with CellTiter Glo (Promega). 96-well plates for used either for cell viability determination or cell staining.

mHTT = mHTT (Mus musculus, UniProt P42859, DEL28-30/G47A/INS49LLPQPQPP/INS60VA/L56P/P40L); assay: Diffuse mHTT levels in heat shocked STHdh 111/111 striatal cells by immunocytochemistry; conditions: for remaining activity at 10 µM: 48 h
STHdh 7/7 striatal cells = assay: Cell viability of heat shocked STHdh 7/7 striatal cells; type: cell-based, mouse; conditions: 48 hours treatment; for Cell Viability striatal cells 3h heat shocked: 10 µM; for viability at 10 µM: Mus musculus, read-out: Cell Viability striatal cells 3h heat shocked
Experimental: RESULTS - Table 7b summarizes the effect of the compounds on cell viability. STHdh 7/7 were heat shocked for 3 hours and treated for 48 hours with small molecule compounds. Table 2 lists the cell viability in striatal cells after 48 hours.
Effect of Compound 22 on Cell Viability of Wildtype Striatal Neurons - STHdh 7/7 cells are striatal cells that express wildtype huntingtin. These cells were cultured in the same conditions as described above for STHdh 111/111. The neurons were first heat shocked for 3 hours at 41° C. as described above. After 48 hours of treatment with the small molecule Compounds, cell viability was determined using the method described above. The “buffer” control is represents cells treated with a buffer only, without any compounds added. Some of the compounds show higher cell viability in comparison to control heat shocked STHdh 7/7 neurons with buffer and no treatment (FIG. 9).

zebrafish larvae = assay: Zebrafish MPP+ motility model, photomotor assay; type: in vivo; conditions: MPP+ alone, 500 µM
Experimental: MPP+ selectively targets dopaminergic neurons; the putative mechanism is induction of K+ efflux, cell membrane hyperpolarization and inhibition of neuronal firing. This ultimately leads to an inhibition of complex I, a decrease in ATP production and promotion of the generation of reactive oxygen species upon accumulation in the mitochondria (3). The observed phenotype following exposure to 500 µM from 24 hours post fertilization (hpf) to 120 hpf is characterized by a decrease in movement during lights-on phases of a photomotor assay. In unpublished data below, representative locomotor perturbations of the distance moved and movement frequency is shown.
Six groups were included in each experiment. Immediately after spawning, 40 embryos per group were allocated to a 24-well plate and system water (solvent) was added to all wells. For assessment of neuroprotective potential, Compound 4 was added for a final concentration of 1, 10 and 20 µM (column 4-6). From the following day at 24 hpf, Compound 4 was co-incubated with 500 µM MPP+. MPP+ was prepared immediately prior to incubation and solutions were changed daily. At 120 hpf, drug treatment and MPP+ exposure was ceased and a 3X wash was performed with system water. Larvae were then relocated to 96-well plates for behavioral recording and placed in a separate recording room for 24-hour acclimation. Prior to behavioral recording, wells were fully replenished system water.
Naive group was exposed to solvent only. Vehicle group was exposed to solvent and vehicle corresponding to the vehicle of 20 µM drug solution (0.02% DMSO). MPP+ positive control was exposed to solvent and 500 µM MPP+. All compound groups were treated with the respective vehicle and respective concentration of compound 4.
Behavioral data was recorded from 1 p.m. on 6 dpf until shortly after wakening on 7 dpf. The recording consisted of a photomotor assay in which lights switch off and on in 30-minute intervals between 1 p.m. and 6 p.m., producing a consistent photomotor response. […] Upon lights being turned on again, the larvae cease movement followed by a return to baseline. This cycle is repeated five times. Following the last lights-off phase, constant illumination is presented until lights turn off at 10 p.m. for the night. Lights turn on again at 8 a.m. the following day.
Average movement frequency was measured during 30-minute lights-on phases of photomotor assay. Movement bouts were defined as initiated when velocity exceeded a threshold of 2 mm/s and ceased when velocity fell below 1 mm/s.
Distance moved (mm) was defined as the average distance moved during 30-minute lights-on phases of photomotor assay.
Data was obtained using EthoVision XT (Version 11.5.2016, Noldus) and exported to Microsoft Excel for data analysis. […]

[2] = read-out: mHTT after treatment, 10 µM, 3 h heat shock, 48 hours treatment, in comparison to untreated STHdh 111/111

Sequence of mHTT (P42859 with tags, fused parts or gaps DEL28-30/P40L/G47A/INS49LLPQPQPP/L56P/INS60VA): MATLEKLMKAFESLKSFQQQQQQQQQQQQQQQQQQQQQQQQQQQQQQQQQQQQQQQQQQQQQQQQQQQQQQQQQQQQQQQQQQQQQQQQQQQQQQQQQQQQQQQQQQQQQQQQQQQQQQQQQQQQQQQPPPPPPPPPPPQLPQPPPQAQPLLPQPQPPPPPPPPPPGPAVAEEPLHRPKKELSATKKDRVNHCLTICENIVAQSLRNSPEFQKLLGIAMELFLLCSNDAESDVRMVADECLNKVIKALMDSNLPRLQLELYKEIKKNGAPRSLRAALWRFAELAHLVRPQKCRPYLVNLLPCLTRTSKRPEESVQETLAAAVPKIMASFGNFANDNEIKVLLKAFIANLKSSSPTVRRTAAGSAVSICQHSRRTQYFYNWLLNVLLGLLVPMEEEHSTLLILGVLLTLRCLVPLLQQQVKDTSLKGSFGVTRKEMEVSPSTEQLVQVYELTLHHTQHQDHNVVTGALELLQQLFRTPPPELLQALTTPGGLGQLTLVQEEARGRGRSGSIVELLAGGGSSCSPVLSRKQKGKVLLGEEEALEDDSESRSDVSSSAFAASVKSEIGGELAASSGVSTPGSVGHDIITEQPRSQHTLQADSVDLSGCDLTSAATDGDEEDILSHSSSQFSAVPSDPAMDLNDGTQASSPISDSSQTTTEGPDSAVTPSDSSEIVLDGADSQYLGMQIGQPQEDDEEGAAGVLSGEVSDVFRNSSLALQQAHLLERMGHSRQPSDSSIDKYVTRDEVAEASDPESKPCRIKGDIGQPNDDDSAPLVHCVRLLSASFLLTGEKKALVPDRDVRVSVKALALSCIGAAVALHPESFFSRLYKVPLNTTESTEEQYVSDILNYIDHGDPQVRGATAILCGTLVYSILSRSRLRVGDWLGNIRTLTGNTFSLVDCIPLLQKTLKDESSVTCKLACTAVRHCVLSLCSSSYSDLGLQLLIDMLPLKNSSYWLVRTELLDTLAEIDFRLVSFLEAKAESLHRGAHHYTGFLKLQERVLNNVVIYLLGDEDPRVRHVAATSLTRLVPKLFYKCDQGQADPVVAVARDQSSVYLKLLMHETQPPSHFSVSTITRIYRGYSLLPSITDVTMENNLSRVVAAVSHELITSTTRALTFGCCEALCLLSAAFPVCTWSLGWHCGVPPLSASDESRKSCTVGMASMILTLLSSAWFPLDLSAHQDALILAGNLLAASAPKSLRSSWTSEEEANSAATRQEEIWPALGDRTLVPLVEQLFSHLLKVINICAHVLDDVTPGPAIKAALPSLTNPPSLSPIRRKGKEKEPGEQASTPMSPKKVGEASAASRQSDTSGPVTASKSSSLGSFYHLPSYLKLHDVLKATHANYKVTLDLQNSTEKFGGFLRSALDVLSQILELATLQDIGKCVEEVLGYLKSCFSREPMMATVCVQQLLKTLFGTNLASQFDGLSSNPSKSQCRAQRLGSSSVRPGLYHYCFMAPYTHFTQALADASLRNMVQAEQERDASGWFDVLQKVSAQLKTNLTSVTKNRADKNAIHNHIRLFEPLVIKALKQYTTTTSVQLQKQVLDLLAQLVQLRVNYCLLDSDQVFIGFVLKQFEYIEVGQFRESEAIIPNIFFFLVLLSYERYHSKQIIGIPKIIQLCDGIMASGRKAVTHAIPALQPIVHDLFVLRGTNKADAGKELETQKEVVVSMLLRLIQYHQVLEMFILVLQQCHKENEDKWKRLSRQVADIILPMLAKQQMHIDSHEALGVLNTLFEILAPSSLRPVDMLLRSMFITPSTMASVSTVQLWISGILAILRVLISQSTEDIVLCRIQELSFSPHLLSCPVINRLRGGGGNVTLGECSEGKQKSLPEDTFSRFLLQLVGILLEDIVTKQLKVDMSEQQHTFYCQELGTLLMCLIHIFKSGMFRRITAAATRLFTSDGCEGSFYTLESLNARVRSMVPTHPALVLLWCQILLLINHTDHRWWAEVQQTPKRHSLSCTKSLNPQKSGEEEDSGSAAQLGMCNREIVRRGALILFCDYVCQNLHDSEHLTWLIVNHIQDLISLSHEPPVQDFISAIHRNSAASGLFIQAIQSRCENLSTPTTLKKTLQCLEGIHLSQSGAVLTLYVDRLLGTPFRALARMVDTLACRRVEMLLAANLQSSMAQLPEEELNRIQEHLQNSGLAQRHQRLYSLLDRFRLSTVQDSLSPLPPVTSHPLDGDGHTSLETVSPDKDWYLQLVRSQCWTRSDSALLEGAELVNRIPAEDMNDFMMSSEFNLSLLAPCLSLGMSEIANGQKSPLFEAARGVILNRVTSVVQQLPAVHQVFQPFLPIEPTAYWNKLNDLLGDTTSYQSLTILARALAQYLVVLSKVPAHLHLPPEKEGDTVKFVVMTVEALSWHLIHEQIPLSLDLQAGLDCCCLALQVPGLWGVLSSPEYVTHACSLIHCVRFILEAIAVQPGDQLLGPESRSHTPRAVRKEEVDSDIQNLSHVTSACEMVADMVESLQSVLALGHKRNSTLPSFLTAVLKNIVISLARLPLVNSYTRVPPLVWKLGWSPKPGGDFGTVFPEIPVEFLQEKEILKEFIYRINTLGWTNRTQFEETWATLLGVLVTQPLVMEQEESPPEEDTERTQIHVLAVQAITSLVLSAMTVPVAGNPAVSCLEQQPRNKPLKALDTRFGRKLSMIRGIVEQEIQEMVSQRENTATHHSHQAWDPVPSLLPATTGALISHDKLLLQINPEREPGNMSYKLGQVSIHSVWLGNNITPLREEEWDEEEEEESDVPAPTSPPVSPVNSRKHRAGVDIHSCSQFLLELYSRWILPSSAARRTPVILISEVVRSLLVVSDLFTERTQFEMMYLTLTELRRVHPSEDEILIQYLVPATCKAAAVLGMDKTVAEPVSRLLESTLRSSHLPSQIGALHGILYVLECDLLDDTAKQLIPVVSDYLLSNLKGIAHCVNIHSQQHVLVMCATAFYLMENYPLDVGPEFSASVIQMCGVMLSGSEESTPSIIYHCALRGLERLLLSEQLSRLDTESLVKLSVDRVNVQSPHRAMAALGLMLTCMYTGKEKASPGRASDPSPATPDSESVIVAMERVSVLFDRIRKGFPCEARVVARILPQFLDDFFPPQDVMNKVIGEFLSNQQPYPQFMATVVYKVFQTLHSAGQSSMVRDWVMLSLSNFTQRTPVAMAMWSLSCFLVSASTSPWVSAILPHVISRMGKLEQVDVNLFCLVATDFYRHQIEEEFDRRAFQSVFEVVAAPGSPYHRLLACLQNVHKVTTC

CCN(CC)CCNC(=O)c1ccc2[nH]c3c(c2c1)CCCC3 [Compound 26]
viability at 10 µM [1]: 82%
remaining activity at 10 µM (mHTT; read-out: mHTT after treatment): 49%

O=C(NCCN1CCCC1)c1ccc2[nH]c3c(c2c1)CCC3 [Compound 14]
viability at 10 µM [1]: 113%
remaining activity at 10 µM (mHTT; read-out: mHTT after treatment): 41%

Cc1c(C)n(C)c2ccc(C(=O)NCCN3CCC3)cc12 [Compound 44, N-(2-(Azetidin-1-yl)ethyl)-1,2,3-dimethyl-1H-indole-5-carboxamide]
viability at 10 µM [1]: 75%
remaining activity at 10 µM (mHTT; [2]): 66%

CCc1c(C)[nH]c2ccc(C(=O)NCCN3CCN(C)CC3)cc12 [Compound 15]
viability at 10 µM [1]: 104%

Cc1c(C)n(C)c2ccc(C(=O)NCCN(C(C)C)C(C)C)cc12.Cl [Compound 59]
Cell Viability striatal cells 3h heat shocked (STHdh 7/7 striatal cells): 153.6

CCc1[nH]c2ccc(C(=O)NCCN(C)C)cc2c1C [Compound 37]
viability at 10 µM [1]: 78%

CN1CCN(CCNC(=O)c2ccc3[nH]c4c(c3c2)CCC4)CC1 [Compound 10]
viability at 10 µM [1]: 96%
remaining activity at 10 µM (mHTT; read-out: mHTT after treatment): 40%

CCc1[nH]c2ccc(C(=O)NCCN3CCOCC3)cc2c1C [Compound 30]
viability at 10 µM [1]: 55%

CN(C)CCNC(=O)c1ccc2[nH]c3c(c2c1)CCCC3 [Compound 3]
viability at 10 µM [1]: 86%

O=C(NCCN1CCOCC1)c1ccc2[nH]c3c(c2c1)CCC3 [Compound 8]
viability at 10 µM [1]: 115%

Cc1c(C)n(C)c2ccc(C(=O)NCCN3CCN(C)CC3)cc12 [Compound 45]
viability at 10 µM [1]: 81%
remaining activity at 10 µM (mHTT; [2]): 66%

O=C(NCCN1CCCC1)c1ccc2[nH]c3c(c2c1)CCCC3 [Compound 13]
viability at 10 µM [1]: 117%

CCc1[nH]c2ccc(C(=O)NCCN3CCCCC3)cc2c1C [Compound 23]
viability at 10 µM [1]: 84%

CCc1[nH]c2ccc(C(=O)NCCN(CC)CC)cc2c1C [Compound 38]
viability at 10 µM [1]: 81%

CCN(CC)CCNC(=O)c1ccc2[nH]c3c(c2c1)CCC3 [Compound 27]
viability at 10 µM [1]: 66%
remaining activity at 10 µM (mHTT; read-out: mHTT after treatment): 50%

CCc1c(C)[nH]c2ccc(C(=O)NCCN3CCOCC3)cc12 [Compound 32]
viability at 10 µM [1]: 98%

CCN(CC)CCNC(=O)c1ccc2[nH]c(C)c(C)c2c1 [Compound 21, N-(2-(Diethylamino)ethyl)-2,3-dimethyl-1H-indole-5-carboxamide]
viability at 10 µM [1]: 87%
viability at 10 µM (STHdh 7/7 striatal cells): 82.6%

CCc1c(C)[nH]c2ccc(C(=O)NCCN3CCC3)cc12 [Compound 33]
viability at 10 µM [1]: 79%

Cc1c(C)n(C)c2ccc(C(=O)NCCN3CCCC3)cc12 [Compound 46, 1,2,3-Trimethyl-N-(2-(pyrrolidin-1-yl)ethyl)-1Hindole-5-carboxamide]
viability at 10 µM [1]: 96%

CC(C)N(CCNC(=O)c1ccc2[nH]ccc2c1)C(C)C [Compound 72]
viability at 10 µM (STHdh 7/7 striatal cells): 45.7%

CCc1[nH]c2ccc(C(=O)NCCN3CCCC3)cc2c1C [Compound 11]
viability at 10 µM [1]: 114%
remaining activity at 10 µM (mHTT; read-out: mHTT after treatment): 40%

Cc1c(C)n(C)c2ccc(C(=O)NCCN3CCN(C)C(C)C3)cc12 (centres unmarked) [Compound 25, N-(2-(3,4-Dimethylpiperazin-1-yl)ethyl)-1,2,3-trimethyl-1H-indole-5-carboxamide]
viability at 10 µM [1]: 109%

CCc1c(C)[nH]c2ccc(C(=O)NCCN(C)C)cc12 [Compound 1]
viability at 10 µM [1]: 111%
remaining activity at 10 µM (mHTT; read-out: mHTT after treatment): 30%

Cc1c(C)n(C)c2ccc(C(=O)NCCN(C)C)cc12 [Compound 41, N-(2-(Dimethylamino)ethyl)-1,2,3-trimethyl-1H-indole-5-carboxamide]
viability at 10 µM [1]: 75%

CCN(CC)CCNC(=O)c1ccc2c(c1)c(C)c(C)n2C [Compound 19, N-(2-(Diethylamino)ethyl)-1,2,3-dimethyl-1H-indole-5-carboxamide]
viability at 10 µM [1]: 76%
remaining activity at 10 µM (mHTT; [2]): 45%

Cc1[nH]c2ccc(C(=O)NCCN3CCC3)cc2c1C [Compound 17, N-(2-(Azetidin-1-yl)ethyl)-2,3-dimethyl-1H-indole-5-carboxamide]
viability at 10 µM [1]: 99%

C[n+]1ccc(-c2ccccc2)cc1 [MPP+, reference compound]
distance moved compared to naive larvae (zebrafish larvae): moved significantly shorter distances than naive larvae

O=C(NCCN1CCCCC1)c1ccc2[nH]c3c(c2c1)CCCC3 [Compound 16]
viability at 10 µM [1]: 117%

CCN(CC)CCNC(=O)c1ccc2[nH]ccc2c1 [Compound 52]
viability at 10 µM [1]: 59%
remaining activity at 10 µM (mHTT; read-out: mHTT after treatment): 73%

Cc1c(C)n(C)c2ccc(C(=O)NCCN(C(C)C)C(C)C)cc12 [Compound 56]
Cell Viability striatal cells 3h heat shocked [1]: 27
Cell Viability striatal cells 3h heat shocked (STHdh 7/7 striatal cells): 64.1
remaining activity at 10 µM (mHTT; read-out: mHTT after treatment): 109%

CN1CCN(CCNC(=O)c2ccc3[nH]c4c(c3c2)CCCC4)CC1 [Compound 36]
viability at 10 µM [1]: 84%

CN(C)CCNC(=O)c1ccc2[nH]c3c(c2c1)CCC3 [Compound 5]
viability at 10 µM [1]: 104%

Cc1c(C)n(C)c2ccc(C(=O)NCCN3CCCCC3C)cc12 (centres unmarked) [Compound 48]
viability at 10 µM [1]: 108%

CCc1[nH]c2ccc(C(=O)NCCN3CCC3)cc2c1C [Compound 6]
viability at 10 µM [1]: 113%
remaining activity at 10 µM (mHTT; read-out: mHTT after treatment): 37%

CCc1c(C)[nH]c2ccc(C(=O)NCCN3CCCCC3)cc12 [Compound 18]
viability at 10 µM [1]: 103%
remaining activity at 10 µM (mHTT; read-out: mHTT after treatment): 44%

Cc1[nH]c2ccc(C(=O)NCCN3CCCCC3)cc2c1C [Compound 47, 2,3-Dimethyl-N-(2-(piperidin-1-yl)ethyl)-1H-indole-5-carboxamide]
viability at 10 µM [1]: 66%

Cc1c(C)n(C)c2ccc(C(=O)NCCN(C(C)C)C(C)C)cc12.Cl [Compound 39]
Cell Viability striatal cells 3h heat shocked [1]: 117
remaining activity at 10 µM (mHTT; [2]): 58%

Cc1c(C)n(C)c2ccc(C(=O)NCCN3CCCCC3)cc12 [Compound 31, 1,2,3-Trimethyl-N-(2-(piperidin-1-yl)ethyl)-1H-indole-5-carboxamide]
viability at 10 µM [1]: 116%

CC(C)N(CCNC(=O)c1ccc2[nH]ccc2c1)C(C)C [Compound 43]
viability at 10 µM [1]: 32%

O=C(NCCN1CCOCC1)c1ccc2[nH]c3c(c2c1)CCCC3 [Compound 12]
viability at 10 µM [1]: 106%
remaining activity at 10 µM (mHTT; read-out: mHTT after treatment): 40%

Cc1c(C)n(C)c2ccc(C(=O)NCCN3CCOCC3)cc12 [Compound 40]
viability at 10 µM [1]: 85%
mHTT after treatment (mHTT; 10 µM, 3 h heat shock, 48 hours treatment, in comparison to untreated STHdh 111/111): 62%

O=C(NCCN1CCC1)c1ccc2[nH]c3c(c2c1)CCC3 [Compound 42]
viability at 10 µM [1]: 88%

Cc1[nH]c2ccc(C(=O)NCCN3CCCC3)cc2c1C [Compound 29, 2,3-Dimethyl-N-(2-(pyrrolidin-1-yl)ethyl)-1H-indole-5-carboxamide]
viability at 10 µM [1]: 103%
viability at 10 µM (STHdh 7/7 striatal cells): 131%

Source: patent publication US20230218573A1, “INDOLE COMPOUNDS FOR THE TREATMENT OF NEURODEGENERATIVE DISEASES” (GALYAN BIO, INC., priority 2020, published 2023)
